Results as given in patent US20260285868A1, “IMIDAZOTRIAZINE DERIVATIVES AS IL-17 MODULATORS” (UCB BIOPHARMA SRL, priority 2023, published 2026).

Biological target: T1, IL-17A (Homo sapiens, UniProt Q16552)
T1 sequence (Q16552 24-155): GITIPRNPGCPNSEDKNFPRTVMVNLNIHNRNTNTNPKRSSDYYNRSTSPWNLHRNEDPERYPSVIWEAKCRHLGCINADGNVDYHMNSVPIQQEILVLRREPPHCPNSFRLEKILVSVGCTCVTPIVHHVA
Experiment: Inhibition of IL-17A induced IL-6 release from dermal fibroblast cell line (HDF cell line assay)
Type: cell-based
Conditions: HDF cells stimulated with IL-17A 50 pM + TNFα 25 pM; IL-6 measured by HTRF
From the text: Inhibition of IL-17A Induced IL-6 Release from Dermal Fibroblast Cell Line
The purpose of this assay is to test the neutralising ability to IL-17 proteins, in a human primary cell system. Stimulation of normal human dermal fibroblasts (HDF) with IL-17 alone produces only a very weak signal but in combination with certain other cytokines, such as TNFα, a synergistic effect can be seen in the production of inflammatory cytokines, i.e. IL-6.
HDFs were stimulated with IL-17A (50 pM) in combination with TNF-α (25 pM). The resultant IL-6 response was then measured using a homogenous time-resolved FRET kit from Cisbio. The kit utilises two monoclonal antibodies, one labelled with Eu-Cryptate (Donor) and the second with d2 or XL665 (Acceptor). The intensity of the signal is proportional to the concentration of IL-6 present in the sample (Ratio is calculated by 665/620×104).
The ability of a compound to inhibit IL-17 induced IL-6 release from human dermal fibroblasts is measured in this assay.
HDF cells (Sigma #106-05n) were cultured in complete media (DMEM+10% FCS+2 mM L-glutamine) and maintained in a tissue culture flask using standard techniques. Cells were harvested from the tissue culture flask on the morning of the assay using TrypLE (Invitrogen #12605036). The TrypLE was neutralised using complete medium (45 mL) and the cells were centrifuged at 300×g for 3 minutes. The cells were re-suspended in complete media (5 mL) counted and adjusted to a concentration of 3.125×10^4 cells/mL before being added to the 384 well assay plate (Corning #3701) at 40 μL per well. The cells were left for a minimum of three hours, at 37° C./5% CO2, to adhere to the plate.
Compounds were serially diluted in DMSO before receiving an aqueous dilution into a 384 well dilution plate (Greiner #781281), where 5 μL from the titration plate was transferred to 45 μL of complete media and mixed to give a solution containing 10% DMSO.
Mixtures of TNFα and IL-17 cytokine were prepared in complete media to final concentrations of TNFα 25 pM/IL-17A 50 pM, then 30 μL of the solution was added to a 384 well reagent plate (Greiner #781281).
10 μL from the aqueous dilution plate was transferred to the reagent plate containing 30 μL of the diluted cytokines, to give a 2.5% DMSO solution. The compounds were incubated with the cytokine mixtures for 5 h at 37° C. […]
From the Cisbio IL-6 FRET kit (Cisbio #62IL6PEB) europium cryptate and Alexa 665 were diluted in reconstitution buffer and mixed 1:1, as per kit insert. […] The mixture was incubated at room temperature for 3 h with gentle shaking (<400 rpm) before being read on a Synergy Neo 2 plate reader (Excitation: 330 nm; Emission: 615/645 nm).

Compound: CO[C@H]1CCN(C(=O)[C@@H]2CCC(F)(F)CO2)[C@H](c2cnn3cc(C(NC(=O)c4ccnn4C)C4CCC(F)(F)CC4)nc3n2)C1 (single isomer, unassigned) [Example 4, N—[(S)-(4,4-Difluorocyclohexyl)(3-{(2S,4S or 2R,4R)-1-[(2S)-5,5-difluorotetrahydro-pyran-2-carbonyl]-4-methoxypiperidin-2-yl}imidazo[1,2-bl[1,2,4]triazin-6-yl)methyl]-2-methylpyrazole-3-carboxamide]
- IC50: 0.00316 µM

Compound: [2H]C([2H])([2H])O[C@H]1CCN(C(=O)[C@@H]2CCC(F)(F)CO2)[C@@H](c2cnn3cc([C@@H](NC(=O)c4ccnn4C)C4CCC(F)(F)CC4)nc3n2)C1 (single isomer, unassigned) [Example 1, N—[(S)-(4,4-Difluorocyclohexyl)(3-{(2R,4S or 2S,4R)-1-[(2S)-5,5-difluorotetrahydro-pyran-2-carbonyl]-4-(trideuteriomethoxy)piperidin-2-yl}imidazo[1,2-bl[1,2,4]triazin-6-yl)methyl]-2-methylpyrazole-3-carboxamide]
- IC50: 0.0398 µM

Compound: CO[C@H]1CCN(C(=O)[C@@H]2CCC(F)(F)CO2)[C@@H](c2cnn3cc([C@@H](NC(=O)c4ccnn4C)C4CCC(F)(F)CC4)nc3n2)C1 (single isomer, unassigned) [Example 3, N—[(S)-(4,4-Difluorocyclohexyl)(3-{(2R,4S or 2S,4R)-1-[(2S)-5,5-difluorotetrahydro-pyran-2-carbonyl]-4-methoxypiperidin-2-yl}imidazo[1,2-b][1,2,4]triazin-6-yl)methyl]-2-methylpyrazole-3-carboxamide]
- IC50: 0.0398 µM

Compound: [2H]C([2H])([2H])O[C@H]1CCN(C(=O)[C@@H]2CCC(F)(F)CO2)[C@H](c2cnn3cc(C(NC(=O)c4ccnn4C)C4CCC(F)(F)CC4)nc3n2)C1 (single isomer, unassigned) [Example 2, N—[(S)-(4,4-Difluorocyclohexyl)(3-{(2S,4S or 2R,4R)-1-[(2S)-5,5-difluorotetrahydro-pyran-2-carbonyl]-4-(trideuteriomethoxy)piperidin-2-yl}imidazo[1,2-bl[1,2,4]triazin-6-yl)methyl]-2-methylpyrazole-3-carboxamide]
- IC50: 0.00398 µM
